In article PMC12020424, “Identification and Validation of Cyclic Peptides with Mucin-Selective, Location-Specific Binding in the Gastrointestinal Tract” (ACS Nano, 2025):
Several values for one entry are separate records, joined by “and”; a condition that tells them apart may be missing. Equal entries are not always repeated. Where two headings read alike, the source gives them in different places. Bridge positions count the residues as written; N and C are the ends. Peptide text beside a SMILES is read from it.

Columns and labels:
MUC5AC = MUC5AC (Homo sapiens, UniProt P98088); test: Biolayer interferometry binding kinetics, MUC5AC; conditions: for Kd: PBS-HCl pH 1.82, koff/kon, read-out: dissociation constant kd
Method: (§1) Binding kinetics for the successful mucin-binding hits were measured using biolayer interferometry (BLI).[73] In BLI, a protein target is immobilized on the surface of a biosensor, creating a thin optical layer. These coated sensors are then exposed to a solution of the ligand (in this case, the small molecule and peptide hits), allowing the ligand to associate and dissociate with the protein target. This association/dissociation behavior changes the thickness of the optical layer, and the instrument correlates this change in thickness with binding and desorption. By testing different concentrations of the ligand, the kinetic rate constants and dissociation constant (kd) can be measured by fitting the resulting binding curves according to a binding model.[73]
(§2) For the analysis of mucin-binding kinetics, mucins MUC2 and MUC5AC were used as the protein targets, and the “hits” were used as the ligands of interest. Mucins were biotinylated and suspended in buffers with different pH levels (MUC2 in PBS with pH 7.2 and PBS-HCl with pH 3.35, MUC5AC in PBS-HCl with pH 1.82) that mimic the pH of the normal small intestine,[74] the small intestine during inflammatory bowel disease,[75] and the normal stomach,[76] respectively. Hits were dissolved in the same buffer to minimize the optical differences among the buffer, mucin solution, and analyte solution. BLI was carried out on an Octet RED96 platform in five steps. First, a baseline step of 60 s was carried out. Then, biotinylated mucins were immobilized onto the surface of a streptavidin sensor during a loading step of 300 s. Next, the loaded tips were allowed to re-equilibrate in another baseline step for 60 s. Following that, the loaded tips were allowed to incubate in a solution of analyte (an association step) for 300 s; this allowed the hits to interact with the mucin, changing the thickness of the optical layer and generating a response from the optical measurement. Finally, the tips were moved to buffer wells, and the hits were allowed to dissociate from the mucin for 300 s. Data were analyzed, and ligand-only and hit-only controls were used as references to properly characterize the binding performance of the hits.
(§3) Binding of the hits to the mucins generally follows one of two different mechanisms. The first is a 1:1 bimolecular model in which the molecule binds to a specific spot on the mucin. The reaction can, therefore, be described using the following model:[77] [drawing 3]
(§4) In this model, kon represents the rate of association of the hit to the mucin, while koff represents the rate of dissociation of the molecule from the molecule-mucin complex. The dissociation constant is calculated as the ratio of these two rate constants.
(§5) The second model is a 2:1 heterogeneous model, in which the molecule binds at two locations on the mucin (each with its own kinetic rate constants and dissociation constant).[78] These reactions are described using the following model: [drawing 4]
(§6) The rate constants for each interaction are equivalent to those of the single interaction present in the 1:1 model, while each interaction has its own dissociation constant. This was calculated similarly to the 1:1 model.

MUC2 = MUC2 (Homo sapiens, UniProt Q02817); test: Biolayer interferometry binding kinetics, MUC2; conditions: Octet RED96, biotinylated MUC2 on streptavidin sensor; for Kd: PBS pH 7.2, koff/kon, read-out: dissociation constant kd; for kon: PBS pH 7.2, association 300 s, dissociation 300 s
Method: as §1, §2, §3, §4, §5, §6

[1] = test system: MUC5AC-containing stomach tissue; test: Ex vivo fluorescent binding to stomach tissue; set-up: species or system porcine; conditions: MUC5AC-selective peptides to stomach, scaled between free AF647 (0) and WGA-AF647 (1), mean across trials n = 3
Excerpt: (§7) After identifying the peptide hits for each mucin, we tested their binding in an ex vivo setting (Figure S1), evaluating their interaction with mucin-containing porcine tissue and semiquantitatively representing it through fluorescent imaging (Figure 3a). The cyclic peptides were synthesized and conjugated to a fluorophore, Alexa Fluor 647 (AF647), at the N-terminus to allow fluorescent imaging to be used to semiquantitatively measure the peptides’ ex vivo tissue binding, compared to free AF647 and AF647 conjugated to wheat germ agglutinin (WGA), a known lectin for glycoproteins.[40] […] Porcine GI tissue was used due to its similarity in mucin expression compared to human GI tissue and its capacity to source large surface areas of tissue for experiments.[41],[42] Representative IVIS images are shown in Figure 3b-e, where the first four columns represent the four identified peptides (M2.1–M2.4 in Figure 3b,c, M5.1–M5.4 in Figure 3d,e), the fifth column represents WGA-AF647, and the sixth column represents AF647. The “score” results for the peptide ligands are presented in Figure 3f,g for the mucins of interest, with Tables S2–S5 and Figure S3 detailing results for the other tissues (the equation for calculating the “score” is found in the Materials and Methodssection). […] We also examined selectivity by incubating peptides on nontarget tissues. Figure 3h,i depicts the “selectivity” results for the MUC2-selective and MUC5AC-selective peptides, respectively. Selectivity was calculated by determining the ratio of the “score” for a particular mucin to the sum of the “scores” for all mucins (see the Materials and Methods section for the equation used).
The top-performing hits from phage display were tested on ex vivo segments of porcine mucin-containing tissues (jejunal, stomach, and esophageal tissues) obtained from local abattoirs or laboratory-maintained pigs. Tissue was used either immediately after acquisition or after storage at −80 °C; tissue was used at most 1 week after acquisition and storage at −80 °C. After acquisition and equilibration to room temperature, the tissue was washed twice with 25 mL (each) of cold 1× PBS to remove undigested food and other debris. After washing and cleaning, the tissue was mounted between two magnetic plates with holes corresponding to a 48-well plate, as previously described,[72] such that the luminal side of the tissue was facing up (Figure S1). After the tissue was mounted, the amount of peptide/protein corresponding to 40 μg of AF647 was suspended in 200 μL of 1× PBS and added to the wells created by the magnetic plates. This was done 3× for each formulation to perform the experiment in triplicate. In addition, plain 1× PBS was added to one well to serve as the background measurement. […] After washing was complete, fluorescence imaging was performed using an IVIS Spectrum fluorescent imaging system (PerkinElmer), with an automatically calculated exposure time (usually ∼1 s), a 20 cm × 20 cm field of view, and an excitation/emission of 640/680 nm, respectively. The imaging results were analyzed using Living Image software to calculate the total fluorescence intensity for each well, and the results for each hit or control were averaged across different wells. […]
(§8) To better account for tissue-to-tissue variability, the results for each trial were reported as scores rather than using the raw fluorescence intensity. […]

[2] = test system: MUC2-containing intestinal tissue (jejunal); test: Ex vivo fluorescent binding to small intestine tissue; set-up: species or system porcine; conditions: MUC2-selective peptides to small intestine, scaled between free AF647 (0) and WGA-AF647 (1), mean across trials n = 3
Excerpt: as §7
The top-performing hits from phage display were tested on ex vivo segments of porcine mucin-containing tissues (jejunal, stomach, and esophageal tissues) obtained from local abattoirs or laboratory-maintained pigs. Tissue was used either immediately after acquisition or after storage at −80 °C; tissue was used at most 1 week after acquisition and storage at −80 °C. After acquisition and equilibration to room temperature, the tissue was washed twice with 25 mL (each) of cold 1× PBS to remove undigested food and other debris. After washing and cleaning, the tissue was mounted between two magnetic plates with holes corresponding to a 48-well plate, as previously described,[72] such that the luminal side of the tissue was facing up (Figure S1). After the tissue was mounted, the amount of peptide/protein corresponding to 40 μg of AF647 was suspended in 200 μL of 1× PBS and added to the wells created by the magnetic plates. This was done 3× for each formulation to perform the experiment in triplicate. In addition, plain 1× PBS was added to one well to serve as the background measurement. After the peptides were added, the plate setup was covered with aluminum foil and allowed to incubate for 1 h at room temperature with gentle agitation (50 rpm). After incubation, the nonbinding peptides were removed by pouring out the solutions onto a clean paper towel, and the setup was washed three times by adding 200 μL of 1× PBS to each well and gently agitating the setup for 30 s before removing the washing solution. After washing was complete, fluorescence imaging was performed using an IVIS Spectrum fluorescent imaging system (PerkinElmer), with an automatically calculated exposure time (usually ∼1 s), a 20 cm × 20 cm field of view, and an excitation/emission of 640/680 nm, respectively. The imaging results were analyzed using Living Image software to calculate the total fluorescence intensity for each well, and the results for each hit or control were averaged across different wells. The negative control used was unconjugated AF647, while the positive control was WGA-AF647, since WGA is a known lectin that binds glycoproteins.
as §8

[3] = BLI, Octet RED96, biotinylated MUC5AC on streptavidin sensor

Molecule | Kd (MUC5AC; [3]) [µM] | Kd (MUC2; BLI) [µM] | other results
C[C@@H]1NC(=O)[C@H](CCCNC(=N)N)NC(=O)[C@H](CC(=O)O)NC(=O)[C@@H]2CCCN2C(=O)[C@H](CCCNC(=N)N)NC(=O)CNC(=O)[C@H](CC(=O)O)NC(=O)[C@@H](N)CSSC[C@@H](C(=O)O)NC1=O [Peptide M2.3] (H-CDGRPDRAC-OH; disulfide 1-9) | 0.0654 | 0.00711 | 
CC(C)C[C@@H]1NC(=O)[C@H](CO)NC(=O)[C@H](CO)NC(=O)[C@H](C)NC(=O)[C@@H](N)CSSC[C@@H](C(=O)O)NC(=O)[C@H](CCCNC(=N)N)NC(=O)[C@H](C(C)C)NC(=O)[C@H](CO)NC1=O [Peptide M2.4] (H-CASSLSVRC-OH; disulfide 1-9) |  | 0.112 | kon (MUC5AC; pH 1.82, BLI, Octet RED96, biotinylated MUC5AC on streptavidin sensor, PBS-HCl pH 1.82, association 300 s, dissociation 300 s): 29500 M⁻¹ s⁻¹; kon (MUC2; pH 7.2, BLI, read-out: kon): 57700 M⁻¹ s⁻¹
CC[C@H](C)[C@@H]1NC(=O)[C@@H]2CCCN2C(=O)CNC(=O)[C@@H](N)CSSC[C@@H](C(=O)O)NC(=O)[C@H](CC(C)C)NC(=O)[C@H](C)NC(=O)[C@H]([C@@H](C)O)NC(=O)[C@H](Cc2ccc(O)cc2)NC1=O [Peptide M5.2] (H-CGPIYTALC-OH; disulfide 1-9) | 0.00788 | 0.112 | kd for MUC5AC binding compared with MUC2 binding (stronger) (MUC5AC; BLI, MUC5AC pH 1.82 vs MUC2): 2 orders of magnitude
CSCC[C@@H]1NC(=O)CNC(=O)[C@H](CCSC)NC(=O)[C@H]([C@@H](C)O)NC(=O)[C@H](CC(C)C)NC(=O)[C@H](C)NC(=O)[C@H]([C@@H](C)O)NC(=O)[C@@H](N)CSSC[C@@H](C(=O)O)NC1=O [Peptide M5.3] (H-CTALTMGMC-OH; disulfide 1-9) | 0.00154 |  | kon (MUC2; BLI): 6.33 × 10^4 M^–1s^–1 and ~10^4 M^–1s^–1
Alexa Fluor 647 [Free dye, reference compound] |  |  | Overall nanoparticle “score” [1]: 0; Overall nanoparticle “score” [2]: 0
